These results are taken from patent EP1764134B1, “Purine derivatives linked to arylpiperazines” (Spectrum Pharmaceuticals, Inc., priority 2001, dated 2003).

SMILES strings stand for the structures.

In one data set the test system is male C-57 mice. The data set can be described thus: Pre-pulse inhibition testing: reversal of PCP disruption of pre-pulse inhibition of acoustic startle. Particulars: route not given (method: PO or SC); 20 minutes prior to PCP 5mg/kg IP. The format is in vivo.
The next data set concerns mice. The data set can be described thus: Conditioned avoidance testing (CAR, active avoidance). The format is in vivo. Particulars: S.C. 20 minutes before the test session. As to the method:
Training: Consists of 20 trials with variable inter-trial intervals (Trained to 80% Avoidance Criteria). After a one-minute acclimation period, the house light and an acoustic 90dB tone (conditioned stimuli) are presented. A response (crossing to dark compartment) within 5 seconds ends the trial and trial is recorded as avoidance response (CAR). […] To avoid shock, animals learn to move from the lighted side of the chamber to the dark side when the cue is presented (avoidance) or moved when the shock is administered (escape).Testing: Vehicle or test compounds are administered S.C. 20 minutes before the test session. (Checking for disruption of cognition and attention) Table 3. Conditioned Avoidance Responding

Protocol for Caco-2 cells: Caco-2 cells were used to evaluate the membrane permeability of eight embodiments of the present invention. Monolayers were grown to confluence and the integrity checked by transepithelial electrical resistance (TEER) and permeability of Lucifer Yellow. The expression of P-glycoprotein was confirmed by measuring the permeability of digoxin alone and in the presence of verapamil. Permeability measurements were taken for each compound in the apical to basolateral (AP-BL) direction, and the basolateral to apical (BL-AP) direction.
Protocol for male C-57 mice: The non-competitive NMDA receptor antagonist phencyclidine (PCP) reduces pre-pulse inhibition (PPI) of the acoustic startle response in rodents. […] For testing of PPI, male C-57 mice were assigned to five dose groups of eight animals per group, and vehicle or test compound were administered orally (PO) or subcutaneously (SC) 20 minutes prior to intraperitoneal (IP) administration of vehicle or PCP (5mg/kg). Ten minutes following PCP administration, the mice were placed into Hamilton-Kinder startle chambers and evaluation of pre-pulse inhibition procedure was performed. Following a five-minute acclimatization period with background white noise (65db), mice were exposed to five different trial types. Trials were presented ten-time search in a quasi-random order, with randomized 5 to 25 second inter-trial intervals. Trials were: stimulus only trial (120db white noise, 50ms stimulus); two different prepulse+pulse trials in which a 20ms 5db, or 10db stimuli above a 65db background preceded the 120db pulse by 120ms; a 10dbprepulse without a 120db pulse; and a no stimulus trial, in which only the background noise was presented.

`O=C1CCCc2c1ccn2CCCN1CCN(c2cccc(C(F)(F)F)c2)CC1` [NEO-356, 1-{3-[4-(3-Trifluoromethylphenyl)piperazin-1-yl]propyl}-1,5,6,7-tetrahydroindo1-4-one]: the “PCP Disruption of Pre-pulse Inhibition (result in words)” value (from here on “PCP Disruption of Pre-pulse Inhibition”) in the data set with male C-57 mice is “No reversal”. In addition, the “Conditioned Avoidance Responding (overall effect / effect on escape or avoidance, in words)” value in the data set with mice was “No effect”. The PERMEABILITY entry in the data set on Caco-2 cells is “High”.

On to `O=C1CCCc2c1ccn2CCN1CCN(c2cccc(C(F)(F)F)c2)CC1` [NEO-359, 1-{2-[4-(3-Trifluoromethylphenyl)piperazin-1-yl]ethyl}-1,5,6,7-tetrahydroindol-4-one], for which, in the data set with male C-57 mice, the “PCP Disruption of Pre-pulse Inhibition” value is recorded as “No reversal”. Besides, in the data set on mice, the “Conditioned Avoidance Responding (overall effect / effect on escape or avoidance, in words)” value is “No effect on escape or avoidance” and the “Conditioned Avoidance Responding: effect on latency (in words)” value was “Significant decrease in latency”. Besides, the PERMEABILITY result in the data set on Caco-2 cells was “High”.

With `O=C1CCCc2c1ccn2CCCN1CCN(c2cccc(Cl)c2)CC1` [NEO-363, 1-{3-[4-(3-Chlorophenyl)piperazine-1-yl]propyl}-1,5,6,7-tetrahydroindol-4-one], the “Conditioned Avoidance Responding (overall effect / effect on escape or avoidance, in words)” value in the data set on mice was “No effect”. Besides, the PERMEABILITY entry in the data set on Caco-2 cells is reported as “High”.

As for `COc1ccccc1N1CCN(CCCn2ccc3c2CCCC3=O)CC1` [NEO-370, 1-{3-[4-(2-Methoxyphenyl)piperazine-1-yl]propyl}-1,5,6,7-tetrahydroindol-4-one], in the data set with mice, the “Conditioned Avoidance Responding: effect on avoidance (in words)” value is given as “Significant reduction in avoidance” and the “Conditioned Avoidance Responding: effect on latency (in words)” value is “Significant increase in latency”. Further, in the data set on Caco-2 cells, the PERMEABILITY entry was “High”.

Turning to `O=C1CCCc2c1ccn2CCN1CCN(c2cccc(Cl)c2)CC1` [NEO-376, 1-{2-[4-(3-Chloro-phenyl)-piperazin-1-yl]-ethyl}-1,5,6,7-tetrahydro-indol-4-one], in the data set with mice, the “Conditioned Avoidance Responding (overall effect / effect on escape or avoidance, in words)” value is recorded as “No effect on escape or avoidance” and the “Conditioned Avoidance Responding: effect on latency (in words)” value is given as “significant increase in latency”. For the same compound, in the data set on Caco-2 cells, the PERMEABILITY entry was “High”.

Consider `COc1ccccc1N1CCN(CCn2ccc3c2CCCC3=O)CC1` [NEO-377, 1-{2-[4-(2-Methoxyphenyl)-piperazin-1-yl]-ethyl}-1,5,6,7-tetrahydro-indol-4-one], for which, in the data set on mice, the “Conditioned Avoidance Responding: effect on avoidance (in words)” value is reported as “Significant reduction in avoidance” and the “Conditioned Avoidance Responding: effect on latency (in words)” value is given as “Significant increase in latency”. Also, in the data set with Caco-2 cells, the PERMEABILITY entry was “High”.

Turning to `O=C1CCCc2c1ccn2CCCN1CCN(c2ncccn2)CC1` [NEO-381, 1-{3-[4-(2-Pyrimidyl)piperazine-1-yl]propyl}-1,5,6,7-tetrahydroindol-4-one], the “PCP Disruption of Pre-pulse Inhibition” value with male C-57 mice is “No reversal”. Further, in the data set with mice, the “Conditioned Avoidance Responding (overall effect / effect on escape or avoidance, in words)” value is recorded as “No effect”. Besides, the PERMEABILITY result in the data set with Caco-2 cells is “High”.

As to `O=C1CCCc2c1ccn2CCCCN1CCN(c2cccc(C(F)(F)F)c2)CC1` [NEO-392, 1-{4-[4-(3-Trifluoromethylphenyl)piperazin-1-yl]butyl}-1,5,6,7-tetrahydroindol-4-one], in the data set with mice, the “Conditioned Avoidance Responding: effect on avoidance (in words)” value was “Significant reduction in avoidance” and the “Conditioned Avoidance Responding: effect on latency (in words)” value is “Significant increase in latency”. The PERMEABILITY entry in the data set with Caco-2 cells is “High”.

Take `CC(C)NCC(O)COc1cccc2ccccc12` (stereo not drawn) [Propranolol, reference compound]: in the data set on Caco-2 cells, the PERMEABILITY result is listed as “High”.

`Cc1nc2n(c(=O)c1CCN1CCC(c3noc4cc(F)ccc34)CC1)CCCC2` [Risperidone, risperidone, reference compound]: in the data set with mice, the “Conditioned Avoidance Responding: effect on avoidance (in words)” value is “Significant reduction in avoidance” and the “Conditioned Avoidance Responding: effect on latency (in words)” value is recorded as “Significant increase in latency”.
